We go through 7 compounds from PMC5823845 (Bioorganic & Medicinal Chemistry, 2018).

A word on the logD: it is the decadic logarithm of the distribution of all forms, ionised or not, between an organic phase and buffer at a given pH. The microsomal CLint is a measure of how fast metabolising enzymes remove a compound, apart from limits set by blood flow. High values mean rapid turnover, low ones slow turnover.

Like-named read-outs stand apart in the source and are kept apart here.

Series [1] has as its target T1, mouse RAR gamma receptor (Mus musculus, UniProt P18911).
T1 sequence (P18911 185-419 limits assumed): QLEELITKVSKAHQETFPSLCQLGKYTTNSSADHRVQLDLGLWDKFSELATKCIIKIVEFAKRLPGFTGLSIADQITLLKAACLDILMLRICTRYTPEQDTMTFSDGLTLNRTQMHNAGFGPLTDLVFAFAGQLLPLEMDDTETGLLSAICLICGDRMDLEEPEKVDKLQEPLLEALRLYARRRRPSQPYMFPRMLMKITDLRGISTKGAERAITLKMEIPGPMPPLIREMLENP
The conditions noted are these: mouse; ratio of relative EC50s RARγ/RARα.

Series [2] has as its target T2, mouse RAR alpha receptor (Mus musculus, UniProt P11416).
T2 sequence (P11416 183-417 limits assumed): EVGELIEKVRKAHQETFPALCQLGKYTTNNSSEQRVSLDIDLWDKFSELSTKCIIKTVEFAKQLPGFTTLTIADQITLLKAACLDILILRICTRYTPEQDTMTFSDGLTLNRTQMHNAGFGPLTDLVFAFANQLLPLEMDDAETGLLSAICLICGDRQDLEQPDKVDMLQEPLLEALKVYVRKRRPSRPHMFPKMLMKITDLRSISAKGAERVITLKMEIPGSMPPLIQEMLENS
Particulars: relative to the amplitude of the normalizing ATRA output.

Series [3] is described as follows: Log D pH 7.4, octanol/buffer shake flask method.
Description: Briefly, octanol (pre-saturated with buffer) is added to the test compound and sonicated. Buffer at pH 7.4 (presaturated with octanol) is then added to the octanol. […] The system is mixed to allow distribution of the compound between the two phases.
Log D = Log (Coct / Caq ). Where: Coct = Concentration in octanol sample (corrected for dilution) and Caq = Concentration in aqueous sample (corrected for dilution)
For series [4], the target named is T3, mouse RAR beta receptor (Mus musculus, UniProt P22605).
T3 sequence (P22605 210-444 limits assumed): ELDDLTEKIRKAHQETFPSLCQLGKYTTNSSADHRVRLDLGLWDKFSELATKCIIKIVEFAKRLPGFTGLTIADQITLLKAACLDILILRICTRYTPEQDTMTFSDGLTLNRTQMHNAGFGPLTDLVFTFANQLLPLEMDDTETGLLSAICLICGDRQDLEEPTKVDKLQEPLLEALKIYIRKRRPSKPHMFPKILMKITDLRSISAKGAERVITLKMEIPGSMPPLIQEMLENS
Particulars: ratio of relative EC50s RARβ/RARα.

Series [5] in a line: Intrinsic clearance in liver microsomes. The format is in vitro ADME. The conditions noted are these: 37 °C, NADPH, 45 min, mean of 5. The protocol:
The reaction is terminated by the addition of methanol. Following centrifugation, the supernatant is analyzed on the LC-MS/MS. […] The data is the mean on 5 separate experiments.
The ln peak area ratio (compound peak area/internal standard peak area) is plotted against time and the gradient of the line determined.
(see Supplementary data file for details).
(Liver microsomes are a subcellular fraction often used to study metabolism.)

In series [6] the target is T4, Cyp 450 3A4 (Homo sapiens, UniProt P08684).
T4 construct: tissue Cyprotex (CRO); host or cells: human liver microsomes
T4 sequence (P08684 whole entry): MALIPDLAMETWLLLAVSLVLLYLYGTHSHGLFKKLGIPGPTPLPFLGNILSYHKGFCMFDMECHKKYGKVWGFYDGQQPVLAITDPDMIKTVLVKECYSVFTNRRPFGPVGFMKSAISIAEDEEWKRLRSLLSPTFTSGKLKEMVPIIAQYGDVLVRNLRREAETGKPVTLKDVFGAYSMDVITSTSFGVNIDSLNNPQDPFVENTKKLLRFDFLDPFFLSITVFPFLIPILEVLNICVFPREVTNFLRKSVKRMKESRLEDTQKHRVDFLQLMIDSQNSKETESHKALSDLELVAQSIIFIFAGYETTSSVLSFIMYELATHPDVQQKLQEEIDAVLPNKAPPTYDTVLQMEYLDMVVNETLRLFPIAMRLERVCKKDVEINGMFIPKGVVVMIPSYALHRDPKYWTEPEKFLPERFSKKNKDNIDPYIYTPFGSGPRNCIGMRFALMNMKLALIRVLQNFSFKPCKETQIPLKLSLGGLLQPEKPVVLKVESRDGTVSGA
Description: Cytochrome P450 inhibition in human liver microsomes. The conditions noted are these: at 25 μM. The format is in vitro ADME. How it is done:
(§1) The five main cytochrome P450 isoforms (CYP1A, CYP2C9, CYP2C19, CYP2D6 and CYP3A4) were investigated in the P450 inhibition assay. […] At the end of the incubation, the formation of the metabolite was monitored by LC-MS/MS (or fluorescence in the case of CYP1A) at each of the test compound concentrations.

For series [7], the target named is T5, Cyp 450 2C9 (Homo sapiens, UniProt P11712).
T5 construct: tissue Cyprotex (CRO); host or cells: human liver microsomes
T5 sequence (P11712 whole entry): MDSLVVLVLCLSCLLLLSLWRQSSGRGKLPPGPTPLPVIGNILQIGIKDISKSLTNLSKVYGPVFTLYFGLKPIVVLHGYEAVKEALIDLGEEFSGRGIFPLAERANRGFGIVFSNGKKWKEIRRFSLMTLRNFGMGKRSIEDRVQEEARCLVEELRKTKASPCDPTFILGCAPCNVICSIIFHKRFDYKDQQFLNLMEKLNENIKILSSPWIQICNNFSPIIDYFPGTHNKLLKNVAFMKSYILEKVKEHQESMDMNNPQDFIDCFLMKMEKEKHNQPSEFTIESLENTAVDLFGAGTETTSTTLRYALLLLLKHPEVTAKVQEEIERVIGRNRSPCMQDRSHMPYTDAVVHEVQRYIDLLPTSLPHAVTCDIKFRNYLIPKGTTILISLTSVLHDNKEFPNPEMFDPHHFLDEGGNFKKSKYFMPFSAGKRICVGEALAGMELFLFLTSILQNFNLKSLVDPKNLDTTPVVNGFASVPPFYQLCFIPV
The series is described as above. The format is in vitro ADME. The conditions noted are these: at 25 μM. The protocol: as §1

The target in series [8] is T6, Cyp 450 2D6 (Homo sapiens, UniProt P10635).
T6 construct: tissue Cyprotex (CRO); host or cells: human liver microsomes
T6 sequence (P10635 whole entry): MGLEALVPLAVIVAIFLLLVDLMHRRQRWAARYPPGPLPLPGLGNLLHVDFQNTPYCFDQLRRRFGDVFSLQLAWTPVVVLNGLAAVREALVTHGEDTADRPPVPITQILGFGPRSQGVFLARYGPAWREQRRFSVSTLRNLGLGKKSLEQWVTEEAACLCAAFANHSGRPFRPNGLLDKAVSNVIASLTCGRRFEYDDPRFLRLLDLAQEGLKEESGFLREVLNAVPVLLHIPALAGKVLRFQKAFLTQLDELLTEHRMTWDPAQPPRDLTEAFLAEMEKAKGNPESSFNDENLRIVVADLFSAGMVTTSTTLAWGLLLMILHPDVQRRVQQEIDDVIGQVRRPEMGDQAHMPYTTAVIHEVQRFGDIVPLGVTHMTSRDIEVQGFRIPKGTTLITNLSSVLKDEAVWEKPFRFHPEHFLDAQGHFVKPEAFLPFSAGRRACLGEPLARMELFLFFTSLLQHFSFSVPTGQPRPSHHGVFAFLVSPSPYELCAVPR
Described as above. The format is in vitro ADME. Particulars: at 25 μM. How it is done:
as §1

Series [9] has as its target T7, Cyp 450 2C19 (Homo sapiens, UniProt P33261).
T7 construct: tissue Cyprotex (CRO); host or cells: human liver microsomes
The description is as above. The format is in vitro ADME. Particulars: at 25 μM. The protocol:
as §1

For series [10], the target named is T8, Cyp 450 1A2 (Homo sapiens, UniProt P05177).
T8 construct: tissue Cyprotex (CRO); host or cells: human liver microsomes
T8 sequence (P05177 1-516): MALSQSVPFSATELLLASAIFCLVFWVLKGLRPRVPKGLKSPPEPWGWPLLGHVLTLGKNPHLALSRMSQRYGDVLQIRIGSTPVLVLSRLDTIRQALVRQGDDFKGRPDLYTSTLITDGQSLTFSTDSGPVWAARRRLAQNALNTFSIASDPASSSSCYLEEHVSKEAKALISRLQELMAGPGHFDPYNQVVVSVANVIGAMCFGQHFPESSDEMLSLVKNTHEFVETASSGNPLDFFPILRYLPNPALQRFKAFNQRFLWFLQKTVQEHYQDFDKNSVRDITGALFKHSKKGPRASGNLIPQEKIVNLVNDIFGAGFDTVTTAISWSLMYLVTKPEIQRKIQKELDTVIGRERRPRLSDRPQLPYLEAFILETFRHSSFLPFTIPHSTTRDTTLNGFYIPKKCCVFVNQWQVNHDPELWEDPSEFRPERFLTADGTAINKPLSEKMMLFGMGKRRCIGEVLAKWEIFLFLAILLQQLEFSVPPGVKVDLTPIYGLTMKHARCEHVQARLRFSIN
Described as above. Particulars: at 25 μM. The format is in vitro ADME. The protocol: as §1

The nature of series [11]: PK studies in rats. The format is in vivo, Sprague-Dawley rats. The conditions noted are these: for rat pK Cl: iv 0.5 mg/kg; for rat pK Cl / bioavailability: n = 4; for bioavailability: male, Sprague-Dawley, rat, 10 mg/kg po vs 0.5 mg/kg iv, read-out: rat pK F%; for rat pK AUC po: 10 mg/kg po, 8% Ethanol/92% PEG-400, n = 4. The protocol: The Test Items were orally administered at a dose of 10 mg/kg and a dosing volume of 10 mL/kg. […] The Test Items were intravenously administered at a dose of 0.5 mg/kg and a dosing volume of 2 mL/kg. […] Whole blood concentrations of the Test Items were measured using LC-MS/MS and selected pharmacokinetic parameters calculated using Pharsight WinNonLin software. For furthers details see Supplementary data file.

The test system of series [12] is HEPG2 cells. The series can be described thus: High-content cell toxicity screen in HEPG2 cells. The format is cell-based. Particulars: concentrations between 10 and 30 μM. How it is done:
Effect on the cell or mitochondrial viability markers in HepG2 cells were tested for compounds up to 50 μM. HepG2 cells were plated on 96-well tissue culture treated black walled clear bottomed polystyrene plates at 0:3 _ 104 cells in 100_L per well. After 24 hr the cells were dosed with the test compound at a range of concentrations (see Assay Summary for details). At the end of the incubation period, the cells were loaded with the relevant dye/antibody for each cell health marker. The plates were then scanned using an automated fluorescent cellular imager, ArrayScanr VTI (Thermo Scientific Cellomics).

For series [13] the following is noted: in the absence of S9; cited from earlier work.
Setting [14] is: liver microsomes, human microsomes.
Setting [15] is: liver microsomes, mouse microsomes.

T7 sequence (P33261 whole entry): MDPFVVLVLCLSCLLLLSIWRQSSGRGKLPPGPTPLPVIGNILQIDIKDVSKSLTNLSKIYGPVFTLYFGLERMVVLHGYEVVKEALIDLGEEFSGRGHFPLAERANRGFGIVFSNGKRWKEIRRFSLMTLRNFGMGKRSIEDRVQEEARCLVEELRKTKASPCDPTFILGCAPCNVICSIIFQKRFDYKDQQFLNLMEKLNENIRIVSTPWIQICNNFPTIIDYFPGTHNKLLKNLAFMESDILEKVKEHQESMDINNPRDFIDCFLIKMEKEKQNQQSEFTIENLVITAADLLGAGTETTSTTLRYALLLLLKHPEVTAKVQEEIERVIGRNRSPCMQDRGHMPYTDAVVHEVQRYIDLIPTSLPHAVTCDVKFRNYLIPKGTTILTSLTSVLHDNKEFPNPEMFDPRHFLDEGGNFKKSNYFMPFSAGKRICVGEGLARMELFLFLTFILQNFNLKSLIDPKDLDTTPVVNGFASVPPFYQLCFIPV

Turning to `COc1c(Cl)cc(C(=O)Nc2ccc(C(=O)O)c(C)c2)cc1OC(C)C` [Compound 55], the γ/α ratio in series [1] was found to be 509. In series [2], the “RARα agonist type (partial / full agonist)” value is “partial RARα agonist activity”. In addition, the logD in [3] came out at 1.3. Further, the β/α ratio in series [4] was determined as 241. In addition, the microsomal CLint was 1.5 µL/min/mg in series [5] (setting [14]) and 10.6 µL/min/mg in series [5] (setting [15]).
With `CCOc1c(Cl)cc(C(=O)Nc2ccc(C(=O)O)cc2)cc1Cl` [Compound 5, 4-(3,5-dichloro-4-ethoxybenzamido)benzoic acid], in [6], the “Cyp 3A4 liability” value is “inactive”. Moreover, the “Cyp 2C9 liability” value in series [7] was “inactive”. Further, the “Cyp 2D6 liability” value in series [8] was “inactive”. Moreover, in series [9], the “Cyp 2C19 liability” value is “inactive”. In series [10], the Cyp1A liability entry was “inactive”. In series [3], this compound yielded a logD of 1.7. Also, the microsomal CLint in series [5] (setting [14]) worked out at 18 µL/min/mg; in series [5] (setting [15]) it was 127 µL/min/mg.
For the compound `CCOc1c(OC(C)C)cc(C(=O)Nc2ccc(C(=O)O)cc2)cc1OC(C)C` [Compound 31, 4-(4-Ethoxy-3,5-diisopropoxybenzamido)benzoic acid], the “RARα agonist type (partial / full agonist)” value in [2] is given as “partial RARα agonist”. In series [3], this compound displayed a logD of 1.6. Further, the microsomal CLint in series [5] (human microsomes) worked out at 4 µL/min/mg; in series [5] (mouse microsomes), 8 µL/min/mg. Further, the “rat pK Cl” value in series [11] is reported as 1 mL/kg/min. The bioavailability in series [11] (in vivo) turned out to be 81%.
For `CC(C)Oc1cc(C(=O)Nc2ccc(C(=O)O)cc2)cc(Cl)c1OC(C)C` [Compound 39, 4-(3-chloro-4,5-diisopropoxybenzamido)benzoic acid], the “RARα agonist type (partial / full agonist)” value in series [2] is on record as “full agonist”. The logD in series [3] turned out to be 2.6. In series [5] (setting [15]), this compound showed a microsomal CLint of 31 µL/min/mg. Further, in [11], the “rat pK AUC po” value is 43,569 ng·min mL^−1 and the “rat pK Cl” value is listed as 10 mL/kg/min. Besides, in series [11] (whole blood), the bioavailability worked out at 39%.
For `CC1(C)CCC(C)(C)c2cc(C(=O)Nc3ccc(C(=O)O)cc3)ccc21` [Compound 2], in series [12], the cell membrane permeability result is “significant increase” and the mitochondrial membrane potential result is given as “significant decrease”. Besides, in series [3], the logD was 2.8. Also, the mutagenicity in vitro result in [13] is reported as “mutagen”. This compound also yielded a microsomal CLint in series [5] (setting [14]) of 15.6 µL/min/mg.
With `CCOc1c(Cl)cc(C(=O)Nc2ccc(C(=O)O)cc2)cc1OC(C)C` [Compound 49, 4-(3-Chloro-4-ethoxy-5-isopropoxybenzamido)benzoic acid], in [2], the “RARα agonist type (partial / full agonist)” value was “partial agonist”. The compound also showed a logD in [3] of 1.7. For the same compound, the values for the microsomal CLint in series [5] (setting [14]) and in series [5] (setting [15]) were 11 µL/min/mg and 41 µL/min/mg, respectively.
Take `COc1c(Cl)cc(C(=O)Nc2ccc(C(=O)O)cc2)cc1OC(C)C` [Compound 51]: the “RARα agonist type (partial / full agonist)” value in series [2] is on record as “full agonist”. The logD in series [3] turned out to be 1. The microsomal CLint in series [5] (setting [14]) worked out at 12 µL/min/mg. In series [5] (setting [15]), this compound had a microsomal CLint of 9 µL/min/mg. Further, in series [11], the “rat pK AUC po” value is given as 50,940 ng·min mL^−1 and the “rat pK Cl” value is recorded as 3 mL/kg/min. In series [11] (whole blood), the bioavailability is 13%.
